Values quoted from earlier work in the PKSmart pharmacokinetics tables (Seal et al. 2025).

How the values were obtained:
[1] = Lombardo, Berellini, Obach 2018, Drug Metab Dispos 46:1466, doi 10.1124/dmd.118.082966; details: human; for MRT / Vd / clearance / half-life: in vivo, iv; for fraction unbound: plasma
[2] = Lombardo et al. 2013, J Clin Pharmacol 53:178, doi 10.1177/0091270012440282; details: for Vd / clearance: in vivo, iv; for fraction unbound: plasma

Structure (SMILES) | MRT [1] [h] | Vd [1] [L/kg] | clearance [1] [mL/min/kg] | half-life [1] [h] | fraction unbound [1] | Vd ([2]; dog) [L/kg] | clearance ([2]; dog) [mL/min/kg] | fraction unbound ([2]; dog) | Vd ([2]; monkey) [L/kg] | clearance ([2]; monkey) [mL/min/kg] | fraction unbound ([2]; monkey) | Vd ([2]; rat) [L/kg] | clearance ([2]; rat) [mL/min/kg] | fraction unbound ([2]; rat)
Cc1cccnc1NS(=O)(=O)c1ccc(C#Cc2ccc(O)c(C(=O)O)c2)cc1 | 23.8 | 0.1 | 0.07 | 16 | 0.0019 | 0.19 | 20 | 0.01 | 0.08 | 1.9 | 0.003 | 1.2 | 62 | 0.0033
CON=C(C(=O)NC1C(=O)N2C(C(=O)O)=CCS[C@H]12)c1csc(N)n1 (some centres undefined) | 1.6 | 0.2 | 2.1 | 1.5 | 0.72 | 0.27 | 3.25 | 0.83 | 0.29 | 5.93 | 0.662 | 0.54 | 19.3 | 0.7
COc1cc([C@@H]2c3cc4c(cc3[C@@H](O[C@@H]3O[C@@H]5CO[C@@H](C)O[C@H]5[C@H](O)[C@H]3O)[C@H]3COC(=O)C23)OCO4)cc(OC)c1O (some centres undefined) | 6 | 0.18 |  | 5.7 |  | 1.4 | 13 | 0.63 | 0.16 | 1.5 | 0.0051 | 0.58 | 23 | 0.43
Cc1ccc(-c2nc3ccc(C)cn3c2CC(=O)N(C)C)cc1 | 2.1 | 0.54 | 4.3 | 1.7 |  |  |  |  |  |  |  | 1.05 | 48.7 | 0.17
CC1(C)S[C@@H]2C(NC(=O)C(N)c3ccccc3)C(=O)N2C1C(=O)O (some centres undefined) | 1.3 | 0.22 | 2.8 | 1.4 |  | 0.58 | 9.1 | 0.58 |  |  |  | 1.1 | 19 | 0.6
CCN(CC)C(=O)/C(C#N)=C/c1cc(O)c(O)c([N+](=O)[O-])c1 | 0.38 | 0.27 | 12 |  |  |  |  |  |  |  |  | 0.24 | 10.8 | 
COCCCOc1ccnc(C[S+](O)c2nc3ccccc3[n-]2)c1C (centres undefined) | 0.92 | 0.22 | 4 | 1 |  | 2.62 | 86 | 0.0864 |  |  |  | 1.04 | 82.4 | 0.073
Cc1cc(=O)c(C(=O)NC(C(=O)NC2C(=O)N3C(C(=O)O)=C(CSc4nnnn4C)CS[C@H]23)c2ccc(O)cc2)c[nH]1 (some centres undefined) | 5.2 | 0.15 | 0.48 | 5.4 | 0.03 | 0.49 | 5.7 | 0.7 | 0.1 | 0.5 | 0.07 | 0.26 | 9.5 | 0.54
CNC(=O)c1cccc2c(Nc3ccc(NS(C)(=O)=O)cc3OC)c3cccc(C)c3nc12 | 1.9 | 0.3 | 2.6 | 2.4 | 0.0011 | 1 | 3.7 | 0.0038 |  |  |  | 2 | 66 | 0.011
C[C@@H](CN1CC(=O)NC(=O)C1)N1CC(=O)NC(=O)C1 | 3 | 0.55 | 3.1 | 2.5 |  | 0.72 | 11.5 |  |  |  |  |  |  | 
CCN(C(C)=O)c1cccc(-c2ccnc3c(C#N)cnn23)c1 | 1.4 | 1.3 |  |  | 0.4 |  |  |  |  |  |  | 1.72 | 20.7 | 
CC(C)(C)NC(=O)C1CC[C@H]2[C@@H]3CC[C@H]4NC(=O)C=C[C@]4(C)[C@H]3CC[C@]12C (some centres undefined) | 7.6 | 1.1 |  | 6 |  |  |  | 0.18 |  |  |  |  |  | 
N[C@@H](CC(=O)N1CCn2c(nnc2C(F)(F)F)C1)Cc1cc(F)c(F)cc1F | 7.8 | 2.8 | 6 | 12 |  | 3.3 | 9.1 | 0.556 |  |  |  | 8.1 | 45 | 0.68
NC(Cc1ccc(O)c(O)c1)C(=O)O (centres undefined) | 1.2 | 1.7 | 23 | 1.3 | 0.76 | 0.76 | 23.7 |  |  |  |  |  | 109 | 
C[C@@H]1CN(C2CCC(C#N)(c3ccc(F)cc3)CC2)CC[C@]1(C(=O)O)c1ccccc1 (some centres undefined) | 45.3 | 1.17 | 0.43 | 33 | 0.453 |  |  |  |  |  |  | 1.36 | 27 | 0.46
C[C@@H]1O[C@@H]1P(=O)(O)O | 2.7 | 0.32 | 2 | 1.9 |  | 0.77 | 6.9 | 1 |  |  |  |  |  | 
COC(=O)C1=C(C)NC(C)=C(C(=O)OCC(C)C)C1c1ccccc1[N+](=O)[O-] (centres undefined) | 6.5 | 5.5 | 15 | 11 |  | 4.1 | 37.2 | 0.028 |  |  |  | 0.89 | 45.8 | 
COc1ccc2c3c1O[C@H]1[C@@H](O)C=C[C@H]4[C@@H](C2)N(C)CC[C@@]341 | 3.9 | 3.5 | 15 | 4 | 0.7 |  |  |  |  |  |  |  |  | 0.92
CON=C(C(=O)NC1C(=O)N2C(C(=O)[O-])=C(C[n+]3cccc4c3CCC4)CS[C@H]12)c1csc(N)n1 (some centres undefined) | 2.1 | 0.24 | 1.9 | 1.7 | 0.9 | 0.22 | 3.2 | 0.542 | 0.27 | 2.4 | 0.446 | 0.3 | 9.5 | 
COc1ccc(Cl)cc1[C@]1(F)C(=O)Nc2cc(C(F)(F)F)ccc21 | 11 | 10 | 15 | 37 | 0.0038 | 4.06 | 3.5 | 0.0067 |  |  |  | 6.3 | 43 | 
COc1ccc(Cc2nccc3cc(OC)c(OC)cc23)cc1OC | 1.4 | 1 | 11 | 1.8 |  | 3.01 | 21.8 | 0.1 |  |  |  |  |  | 0.09
CCCC(C)C1(CC)C(=O)NC(=O)NC1=O (centres undefined) | 32 | 0.91 | 0.47 | 22 | 0.39 | 1.06 | 1.3 |  |  |  |  | 1.64 | 8.4 | 0.5
NC(=O)c1ncn([C@@H]2O[C@H](CO)[C@@H](O)[C@H]2O)n1 | 45 |  | 5.2 | 45 |  |  |  |  |  | 3.7 | 0.497 |  | 43 | 
Cc1nc2n(c(=O)c1CCN1CCC(c3noc4cc(F)ccc34)CC1)CCCC2 |  |  |  | 3.2 |  |  |  | 0.083 |  |  | 0.084 | 3.6 | 71.7 | 0.118
Cc1cn([C@H]2C=C[C@@H](CO)O2)c(=O)[nH]c1=O | 1.4 | 0.67 | 8.2 | 1.4 | 1 |  |  | 0.9 | 0.8 | 9.4 | 0.9 | 1.09 | 20.2 | 0.9
NC(=O)OC[C@@H]1C(=NC(=O)C(NOCC(=O)O)c2csc(N)n2)C(=O)N1S(=O)(=O)O (some centres undefined) | 2 | 0.18 | 1.5 | 1.6 | 0.72 | 0.1 | 5.5 | 0.89 | 0.12 | 4.5 | 0.76 | 0.1 | 22 | 0.7
